Measurements from patent US9382254B2, “Compounds and pharmaceutical compositions thereof for the treatment of cystic fibrosis” (Galapagos NV, priority 2013, dated 2016).
pEC50: −log10 of the molar value.

Columns and labels:
Assay type in all cases: cell-based
CFTR ΔF508 mutant [1] = biological target: T1, CFTR ΔF508 mutant (Homo sapiens, UniProt P13569, DEL508-508); assay: YFP-halide influx assay for the CFTR-ΔF508 mutation, PBS buffer (96 well); settings: CFBE41o- cells, forskolin 10.67 μM
T1 construct: expressed in transfected cells; host or cells: CFBE41o- (adenoviral transduction)
Description: The YFP halide influx assay measures the functionality of the cystic fibrosis Transmembrane Conductance regulator (CFTR) channels in the cystic fibrosis bronchial epithelium cell line CFBE41o-. The assay is used to evaluate the capacity of compounds to increase the open probability of existing CFTR channels in the membrane. It makes use of the observation that the yellow fluorescent protein (YFP) variant YFP H148Q, I152L has its fluorescence substantially quenched by halide ions like Cl^− and I^−. (Galietta, Haggie, & Verkman, 2001) (Nagai, et al., 2002)
For this purpose, CFBE41o-cells are seeded in 96 well plates (6000 CFBE cells/well). One day after seeding, the CFBE cells are transduced with adenoviral vectors that direct the expression of the CFTR ΔF508 mutant and of the YFP reporter. Cells are incubated at 27° C., 5% CO2 for 24 hours so as to allow for the proper folding and migration to the membrane of the CFTR channel or treated with a CFTR modulator during 24 hours at 37° C.
The I^− induced quenching of fluorescence is recorded immediately after injection of I^− for 7 seconds. The capacity of a compound to increase the channel opening is directly correlated with the decrease in fluorescence, and is expressed as (1-(fluorescence after 7 seconds (F)/fluorescence before injection (F0))) and an EC50 can be derived from a (1-F/F0) vs compound concentration plot.

CFTR ΔF508 mutant [2] = biological target: T1, CFTR ΔF508 mutant; assay: YFP-halide influx assay for the CFTR-ΔF508 mutation (384 well, FDSS/μCell); settings: CFBE41o- cells, CFTR-ΔF508, 1×D-PBS, fluorescence after 36 seconds
Procedure, shortened: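 Potentiator read-out as 1−F/F0, F taken 36 s after iodide addition, EC50 fitted against compound concentration. Cells: CFBE41o- expressing ΔF508 CFTR plus halide-sensitive YFP via adenovirus, rescued by 27 °C for 24 h or 24 h modulator at 37 °C.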

CFTR G551D mutant = biological target: T2, CFTR G551D mutant (Homo sapiens, UniProt P13569, G551D); assay: YFP-halide influx assay for the CFTR-G551D mutation; settings: HEK293 cells, forskolin 10.67 μM
T2 construct: expressed in transfected cells; host or cells: HEK293 (reverse transfection with plasmid)
Procedure, shortened: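 Channel opening potentiation measured as 1−F/F0, where F is YFP fluorescence 7 s after iodide injection and F0 before; EC50 taken from concentration plot. Cells: HEK293 transiently expressing CFTR G551D plus halide-sensitive YFP (H148Q, I152L, F47L), 24 h at 37 °C, 5% CO2.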

T2 sequence (P13569 whole entry G551D): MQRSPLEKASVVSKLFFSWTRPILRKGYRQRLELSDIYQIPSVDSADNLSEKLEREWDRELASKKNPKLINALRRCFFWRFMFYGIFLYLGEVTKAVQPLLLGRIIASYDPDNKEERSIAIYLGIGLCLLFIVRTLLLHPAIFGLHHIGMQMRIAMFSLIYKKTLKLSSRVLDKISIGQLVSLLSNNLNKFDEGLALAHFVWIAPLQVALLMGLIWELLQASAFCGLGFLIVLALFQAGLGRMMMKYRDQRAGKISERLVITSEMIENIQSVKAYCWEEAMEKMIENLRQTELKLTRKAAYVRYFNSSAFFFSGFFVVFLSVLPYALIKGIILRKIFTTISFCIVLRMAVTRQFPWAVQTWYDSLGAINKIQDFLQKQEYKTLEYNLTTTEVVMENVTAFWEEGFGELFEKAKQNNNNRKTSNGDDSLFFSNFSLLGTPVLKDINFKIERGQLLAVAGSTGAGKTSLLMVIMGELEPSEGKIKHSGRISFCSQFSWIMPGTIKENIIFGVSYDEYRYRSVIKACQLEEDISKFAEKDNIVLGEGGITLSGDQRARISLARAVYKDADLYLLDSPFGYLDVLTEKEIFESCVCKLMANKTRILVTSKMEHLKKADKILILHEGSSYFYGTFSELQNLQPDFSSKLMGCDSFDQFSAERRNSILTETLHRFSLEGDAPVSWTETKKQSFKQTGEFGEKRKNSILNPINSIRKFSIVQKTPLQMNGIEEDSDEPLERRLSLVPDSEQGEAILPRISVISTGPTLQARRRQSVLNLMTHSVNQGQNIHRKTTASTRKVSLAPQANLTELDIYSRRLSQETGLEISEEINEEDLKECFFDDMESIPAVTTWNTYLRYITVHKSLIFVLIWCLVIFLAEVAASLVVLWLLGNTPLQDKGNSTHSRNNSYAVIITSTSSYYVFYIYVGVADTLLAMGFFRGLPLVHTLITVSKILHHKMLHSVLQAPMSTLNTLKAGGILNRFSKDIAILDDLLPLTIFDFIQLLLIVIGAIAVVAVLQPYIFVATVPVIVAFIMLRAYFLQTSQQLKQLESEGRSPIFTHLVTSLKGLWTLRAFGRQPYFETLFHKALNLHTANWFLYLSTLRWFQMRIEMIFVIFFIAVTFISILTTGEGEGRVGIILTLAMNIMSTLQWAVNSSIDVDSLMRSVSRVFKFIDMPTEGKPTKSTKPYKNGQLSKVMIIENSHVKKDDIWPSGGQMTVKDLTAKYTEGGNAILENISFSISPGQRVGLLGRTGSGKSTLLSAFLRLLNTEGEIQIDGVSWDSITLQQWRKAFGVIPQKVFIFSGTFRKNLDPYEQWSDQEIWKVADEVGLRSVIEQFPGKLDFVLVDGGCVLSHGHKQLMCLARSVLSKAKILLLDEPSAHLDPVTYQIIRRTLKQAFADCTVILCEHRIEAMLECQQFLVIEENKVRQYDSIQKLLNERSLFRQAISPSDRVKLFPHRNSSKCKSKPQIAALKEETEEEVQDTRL
T1 sequence (P13569 with tags, fused parts or gaps DEL508-508): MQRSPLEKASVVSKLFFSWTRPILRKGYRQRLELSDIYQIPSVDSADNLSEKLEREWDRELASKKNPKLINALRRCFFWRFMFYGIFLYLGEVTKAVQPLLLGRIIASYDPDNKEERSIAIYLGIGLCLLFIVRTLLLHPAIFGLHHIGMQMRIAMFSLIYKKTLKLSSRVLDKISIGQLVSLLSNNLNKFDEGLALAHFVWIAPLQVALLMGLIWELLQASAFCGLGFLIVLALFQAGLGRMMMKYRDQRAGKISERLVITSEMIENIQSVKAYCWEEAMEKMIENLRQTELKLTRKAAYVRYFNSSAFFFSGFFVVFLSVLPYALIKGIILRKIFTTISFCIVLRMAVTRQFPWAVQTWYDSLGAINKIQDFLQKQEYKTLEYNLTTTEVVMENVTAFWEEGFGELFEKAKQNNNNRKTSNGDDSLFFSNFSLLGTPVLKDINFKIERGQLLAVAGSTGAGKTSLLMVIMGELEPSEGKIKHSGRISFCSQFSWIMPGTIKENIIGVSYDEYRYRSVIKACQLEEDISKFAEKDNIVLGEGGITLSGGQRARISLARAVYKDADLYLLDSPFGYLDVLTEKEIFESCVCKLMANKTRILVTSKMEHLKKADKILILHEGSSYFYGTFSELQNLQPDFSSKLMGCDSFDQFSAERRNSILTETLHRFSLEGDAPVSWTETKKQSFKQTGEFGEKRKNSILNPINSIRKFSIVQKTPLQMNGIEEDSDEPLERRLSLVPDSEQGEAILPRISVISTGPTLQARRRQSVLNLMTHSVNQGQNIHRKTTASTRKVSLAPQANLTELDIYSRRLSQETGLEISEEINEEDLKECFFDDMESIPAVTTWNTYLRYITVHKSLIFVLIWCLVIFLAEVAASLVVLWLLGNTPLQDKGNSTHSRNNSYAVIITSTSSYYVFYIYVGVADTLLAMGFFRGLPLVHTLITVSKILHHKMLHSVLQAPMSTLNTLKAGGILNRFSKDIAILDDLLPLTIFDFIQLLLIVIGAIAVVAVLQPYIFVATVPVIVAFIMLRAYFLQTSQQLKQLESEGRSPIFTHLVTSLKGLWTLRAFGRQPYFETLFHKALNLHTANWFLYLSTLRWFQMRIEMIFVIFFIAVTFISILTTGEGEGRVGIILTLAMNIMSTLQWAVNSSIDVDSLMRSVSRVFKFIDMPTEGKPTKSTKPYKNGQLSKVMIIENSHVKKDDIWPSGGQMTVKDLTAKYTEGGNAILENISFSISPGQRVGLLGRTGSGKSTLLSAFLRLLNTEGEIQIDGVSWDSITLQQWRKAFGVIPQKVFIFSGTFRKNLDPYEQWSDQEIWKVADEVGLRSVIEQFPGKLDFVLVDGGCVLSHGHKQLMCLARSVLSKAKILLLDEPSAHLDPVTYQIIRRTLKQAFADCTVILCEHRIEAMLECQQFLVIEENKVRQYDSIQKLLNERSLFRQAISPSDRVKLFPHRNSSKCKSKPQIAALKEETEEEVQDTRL

| pEC50 (CFTR ΔF508 mutant [1]) | pEC50 (CFTR ΔF508 mutant [2]) | pEC50 (CFTR G551D mutant) | pEC50 (CFTR G551D mutant; class symbol) | Compound |
| --- | --- | --- | --- | --- |
| 7.52 | 7.71 | 5.99 | – | NC(=O)c1cc(S(=O)(=O)c2ccc(F)cc2Br)sc1NC(=O)C1(O)CC1 [Compound 264, 5-(2-bromo-4-fluorophenylsulfonyl)-2-(1-hydroxycyclopropanecarboxamido) thiophene-3-carboxamide] |
| 7.37 | 7.04 | 5.70 | – | CC(C)Oc1cccc(S(=O)(=O)c2cc(C(N)=O)c(NC(=O)C(C)(C)O)s2)c1 [Compound 265, 2-(2-hydroxy-2-methylpropanamido)-5-(3-isopropoxyphenylsulfonyl) thiophene-3-carboxamide] |
| 7.29 | 7.07 | 6.10 | – | COc1ccc(S(=O)(=O)c2cc(C(N)=O)c(NC(=O)C(C)(C)O)s2)c(OC(F)F)c1 [Compound 284, 5-(2-(difluoromethoxy)-4-methoxyphenylsulfonyl)-2-(2-hydroxy-2-methylpropanamido) thiophene-3-carboxamide] |
| 7.55 | 6.93 | 5.78 | – | NC(=O)c1cc(S(=O)(=O)c2ccc(F)cc2)sc1NC(=O)C1CCCCC1O (stereo not shown) [Compound 280, 5-(4-fluorophenylsulfonyl)-2-(2-hydroxycyclohexanecarboxamido) thiophene-3-carboxamide] |
| 7.38 | 7.41 | 6.33 | – | NC(=O)c1cc(S(=O)(=O)c2cccc(F)c2)sc1NC(=O)C1(O)CC1 [Compound 227, 5-(3-fluorophenylsulfonyl)-2-(1-hydroxycyclopropanecarboxamido) thiophene-3-carboxamide] |
| 6.89 | – | 5.98 | – | CN(C1CC1)S(=O)(=O)c1cc(C(N)=O)c(NC(=O)C2(O)CC2)s1 [Compound 232, 5-(N-cyclopropyl-N-methylsulfamoyl)-2-(1-hydroxycyclopropanecarboxamido) thiophene-3-carboxamide] |
| < 6.00 | – | – | < 6.00 | Cn1ccnc1S(=O)(=O)c1cc(C(N)=O)c(NC(=O)C(C)(C)O)s1 [Compound 285, 2-(2-hydroxy-2-methylpropanamido)-5-(1-methyl-1H-imidazol-2-ylsulfonyl) thiophene-3-carboxamide] |
| 6.76 | – | – | < 6.00 | COc1ccccc1S(=O)(=O)c1cc(C(N)=O)c(NC(=O)C(C)(C)O)s1 [Compound 301, 2-(2-hydroxy-2-methylpropanamido)-5-(2-methoxyphenylsulfonyl) thiophene-3-carboxamide] |
| 5.86 | – | – | < 6.00 | Cc1cccnc1S(=O)(=O)c1cc(C(N)=O)c(NC(=O)C(C)(C)O)s1 [Compound 278, 2-(2-hydroxy-2-methylpropanamido)-5-(3-methylpyridin-2-ylsulfonyl) thiophene-3-carboxamide] |

Continued, molecule first:

| Compound | pEC50 (CFTR ΔF508 mutant [1]) | pEC50 (CFTR ΔF508 mutant [2]) | pEC50 (CFTR G551D mutant) | pEC50 (CFTR G551D mutant; class symbol) |
| --- | --- | --- | --- | --- |
| CC(O)C(=O)Nc1sc(S(=O)(=O)c2ccccc2OC(F)(F)F)cc1C(N)=O (stereo not shown) [Compound 311, 2-(2-hydroxypropanamido)-5-(2-(trifluoromethoxy)phenylsulfonyl) thiophene-3-carboxamide] | 7.82 | 8.46 | 6.22 | – |
| NC(=O)c1cc(S(=O)(=O)c2ccc(F)cc2F)sc1NC(=O)C1(O)CC1 [Compound 256, 5-(2,4-difluorophenylsulfonyl)-2-(1-hydroxycyclopropanecarboxamido) thiophene-3-carboxamide] | 7.58 | 7.64 | 5.75 | – |
| CC(C)(O)C(=O)Nc1sc(S(=O)(=O)c2ccccc2C(F)(F)F)cc1C(N)=O [Compound 289, 2-(2-hydroxy-2-methylpropanamido)-5-(2-(trifluoromethyl)phenylsulfonyl) thiophene-3-carboxamide] | 7.51 | 7.55 | 6.72 | – |
| CC(C)(O)C(=O)Nc1sc(S(=O)(=O)c2ccccc2CC(F)(F)F)cc1C(N)=O [Compound 302, 2-(2-hydroxy-2-methylpropanamido)-5-(2-(2,2,2-trifluoroethyl)phenylsulfonyl) thiophene-3-carboxamide] | 7.95 | 8.09 | 6.51 | – |
| Cc1cccc(C)c1S(=O)(=O)c1cc(C(N)=O)c(NC(=O)C2(O)CC2)s1 [Compound 251, 5-(2,6-dimethylphenylsulfonyl)-2-(1-hydroxycyclopropanecarboxamido) thiophene-3-carboxamide] | 7.68 | 7.33 | 5.90 | – |
| COCCOc1cc(F)ccc1S(=O)(=O)c1cc(C(N)=O)c(NC(=O)C(C)(C)O)s1 [Compound 282, 5-(4-fluoro-2-(2-methoxyethoxy)phenylsulfonyl)-2-(2-hydroxy-2-methylpropanamido) thiophene-3-carboxamide] | 6.80 | – | 5.48 | – |
| NC(=O)c1cc(S(=O)(=O)c2ccc(F)cc2)sc1NC(=O)C(O)C(F)(F)F (stereo not shown) [Compound 252, 5-(4-fluorophenylsulfonyl)-2-(3,3,3-trifluoro-2-hydroxypropanamido) thiophene-3-carboxamide] | 7.31 | – | 6.67 | – |
| CC1(C)CN(S(=O)(=O)c2cc(C(N)=O)c(NC(=O)C(C)(C)O)s2)C1 [Compound 309, 5-(3,3-Dimethyl-azetidine-1-sulfonyl)-2-(2-hydroxy-2-methyl-propionylamino)-thiophene-3-carboxylic acid amide] | 6.94 | – | 5.54 | – |
| NC(=O)c1cc(S(=O)(=O)c2ccc(F)cc2)sc1NC(=O)C1COCCO1 (stereo not shown) [Compound 277, N-(3-carbamoyl-5-(4-fluorophenylsulfonyl)thiophen-2-yl)-1,4-dioxane-2-carboxamide] | 6.41 | – | 5.48 | – |
| NC(=O)c1cc(S(=O)(=O)c2ccc(F)cc2)sc1NC(=O)C(O)(C(F)(F)F)C(F)(F)F [Compound 275, 5-(4-fluorophenylsulfonyl)-2-(3,3,3-trifluoro-2-hydroxy-2-(trifluoromethyl)propanamido) thiophene-3-carboxamide] | 6.66 | – | 5.77 | – |
| CC(=O)OC(C)(C)C(=O)Nc1sc(S(=O)(=O)c2ccccc2C(C)C)cc1C(N)=O [Compound 294, 1-(3-carbamoyl-5-(2-isopropylphenylsulfonyl)thiophen-2-ylamino)-2-methyl-1-oxopropan-2-yl acetate] | 6.64 | – | 5.88 | – |
| NC(=O)c1cc(S(=O)(=O)c2ccc(F)cc2)sc1NC(=O)C(O)CO (stereo not shown) [Compound 288, 2-(2,3-dihydroxypropanamido)-5-(4-fluorophenylsulfonyl) thiophene-3-carboxamide] | 5.63 | – | – | < 6.00 |
| CC(C)(O)C(=O)Nc1sc(S(=O)(=O)N2CCC(F)(F)CC2)cc1C(N)=O [Compound 308, 5-(4,4-difluoropiperidin-1-ylsulfonyl)-2-(2-hydroxy-2-methylpropanamido) thiophene-3-carboxamide] | 6.63 | – | 5.99 | – |
| Cc1cc(S(=O)(=O)c2cc(C(N)=O)c(NC(=O)C(C)(C)O)s2)ccn1 [Compound 299, 2-(2-Hydroxy-2-methyl-propionylamino)-5-(2-methyl-pyridine-4-sulfonyl)-thiophene-3-carboxylic acid amide] | 6.04 | – | 5.48 | – |
| COCCN(C1CC1)S(=O)(=O)c1cc(C(N)=O)c(NC(=O)C(C)(C)O)s1 [Compound 306, 5-(N-cyclopropyl-N-(2-methoxyethyl)sulfamoyl)-2-(2-hydroxy-2-methylpropanamido) thiophene-3-carboxamide] | 6.59 | – | – | < 6.00 |
| Cc1ccc(S(=O)(=O)c2cc(C(N)=O)c(NC(=O)C(C)(C)O)s2)cn1 [Compound 297, 2-(2-Hydroxy-2-methyl-propionylamino)-5-(6-methyl-pyridine-3-sulfonyl)-thiophene-3-carboxylic acid amide] | 6.44 | – | 5.48 | – |
| CC(C)N(C(C)C)S(=O)(=O)c1cc(C(N)=O)c(NC(=O)C2(O)CC2)s1 [Compound 233, 5-(N,N-diisopropylsulfamoyl)-2-(1-hydroxycyclopropanecarboxamido) thiophene-3-carboxamide] | 6.89 | – | – | < 6.00 |
| COCCOC(C)C(=O)Nc1sc(S(=O)(=O)c2ccc(F)cc2)cc1C(N)=O (stereo not shown) [Compound 276, 5-(4-fluorophenylsulfonyl)-2-(2-(2-methoxyethoxy)propanamido) thiophene-3-carboxamide] | 6.11 | – | 5.48 | – |
